{"source": "paper PMC11665553", "about": "“12-Lipoxygenase inhibition delays onset of autoimmune diabetes in human gene replacement mice” (JCI Insight, 2024)", "format_in_all_cases": "in vivo, mouse", "key": {"NOD.hALOX12 mice [1]": {"tested_on": "NOD.hALOX12 mice", "experiment": "NanoString spatial proteomics of insulitic and insulin-positive areas in NOD.hALOX12 mice", "conditions": "individual regions of interest", "from_the_text": "To specifically interrogate the nature of immune cells within the insulitic region, we performed spatial tissue-based proteomics (NanoString). We used insulin immunostaining and nuclei staining to identify β cells and the surrounding insulitic regions. Prevalidated antibodies in the GeoMx mouse immune panel were used to probe for immune cell subtypes in the peri-islet insulitic region and within the islet. […] This reduction in myeloid cell populations was accompanied by a decrease in T and B cells populations, including CD4^+, CD3^+, CD8^+, and CD19^+ cells (Figure 2F and Supplemental Figure 2, A and B). […] Enhanced PD-L1/PD-1 interactions shift T cells to less aggressive, more regulatory phenotypes ([21]).\nParaffin embedded pancreata were used for NanoString spatial proteomics analysis. Tissues were stained with morphology markers: AF-647–conjugated insulin (Cell Signaling Technology, 9008s; 1:400) and nuclei marker (SYTO13). Tissues were hybridized using a pre-validated mouse GeoMx Immune cell panel (NanoString, GMX-PROCONCT-MICP) comprising the following markers: PD-1, CD11c, CD8a, PanCk, MHC II, CD19, CTLA4, SMA, CD11b, CD3e, fibronectin, Ki-67, CD4, GZMB, F4/80, CD45, PD-L1; housekeeping genes: histone H3, S6, GAPDH; and IgG antibodies: Rb IgG, Rat IgG2a, and Rat IgG2b for background subtraction. All markers were conjugated to unique UV-photocleavable oligos for indexing. At least 5 or 6 islets with insulitis were chosen as regions of interest (ROIs) per mouse based on the morphology markers (insulin and nuclei). The ROIs were segmented into insulitic region and insulin^+ region for each islet. Oligonucleotides from the segmented ROIs were photocleaved, collected in a 96-well plate, and reads were counted using nCounter (NanoString). Scaling was performed to normalize for any differences in tissue surface area and depth. After scaling, reads were normalized to housekeeping markers and background was subtracted using IgG markers."}, "C57BL/6J mice": {"tested_on": "C57BL/6J mice", "experiment": "Multiple low-dose STZ-induced diabetes in WT C57BL/6J mice (random-fed blood glucose, GTT)", "set-up": "Random-fed blood glucose (Fig 1E) / GTT blood glucose (Fig 1F): unit not given here", "conditions": "for Random-fed blood glucose (Fig 1E): 30 mg/kg i.p. + STZ; for Random-fed blood glucose (Fig 1E) / GTT blood glucose (Fig 1F): listed as ML355; for GTT blood glucose (Fig 1F): Control (C57BL/6J)"}, "NOD.hALOX12 mice [2]": {"tested_on": "NOD.hALOX12 mice", "experiment": "Oxidative stress immunostaining (4-HNE, GPx1) in NOD.hALOX12 mice", "excerpt": "We, therefore, immunostained pancreatic sections for markers of cell death and proliferation in the islet.\nFor immunofluorescent staining, pancreatic sections were stained with the following antibodies: anti-insulin (Dako, IR002; 1:4), anti-glucagon (Santa Cruz Biotechnology, sc514592; 1:50), anti-B220 (BioLegend, 03201; 1:100), anti-CD3 (Abcam, ab16669; 1:200), anti-PCNA (Santa Cruz Biotechnology, sc-7907; 1:100), anti–4-HNE (Abcam, ab46545; 1:200), and anti-GPx1 (Santa Cruz Biotechnology, sc-22145; 1:100). Highly cross-adsorbed Alexa Fluor secondary antibodies (Thermo Fisher Scientific) were used at a dilution of 1:500. Tissue sections were stained with DAPI (Thermo Fisher Scientific) to label cell nuclei. The Nikon A1 confocal microscopy was used to capture images. CellProfiler v4.1 software (https://cellprofiler.org/) was used for image analysis."}, "NOD.hALOX12 mice [3]": {"tested_on": "NOD.hALOX12 mice", "experiment": "Diabetes incidence (prevention) in NOD.hALOX12 mice", "conditions": "30 mg/kg p.o. daily, 6–10 weeks of age", "procedure": "(§1) Mice were followed for diabetes development (blood glucose ≥250 mg/dL on 2 consecutive days) until 25 weeks of age (Figure 3A).\nDiabetes incidence was determined by observing 2 consecutive blood glucose values greater than 250 mg/dL."}, "NOD.hALOX12 mice [4]": {"tested_on": "NOD.hALOX12 mice", "experiment": "Diabetes treatment (reversal) in diabetic female NOD.hALOX12 mice", "conditions": "30 mg/kg/day p.o. up to 6 weeks", "procedure": "as §1\nFor diabetes treatment studies, female NOD.hALOX12 mice were followed for random-fed blood glucose from 12 to 20 weeks of age."}, "NOD.hALOX12 mice [5]": {"tested_on": "NOD.hALOX12 mice", "experiment": "Insulitis scoring and pancreas immunostaining (CD3, B220, F4/80, MAC2) in NOD.hALOX12 mice"}, "NOD.hALOX12 mice [6]": {"tested_on": "NOD.hALOX12 mice", "experiment": "NanoString spatial proteomics of insulitic and insulin-positive areas in NOD.hALOX12 mice", "conditions": "Insulitic Area; Fig 2F source data, individual values"}, "[7]": {"conditions": "female NOD.hALOX12 mice, 4 weeks of treatment"}, "[8]": {"conditions": "sheet Fig 4E, individual mice, listed as VLX"}, "[9]": {"conditions": "female NOD.hALOX12 mice, 30 mg/kg p.o., 4 weeks"}, "[10]": {"conditions": "sheet Fig 2G, pancreas immunostaining, individual animals, listed as VLX"}}, "note": "Several values for one entry are separate records, joined by “and”; a condition that tells them apart may be missing. Equal values may be shown once."}
{"smiles": "COc1cccc(CNc2ccc(S(=O)(=O)Nc3nc4ccccc4s3)cc2)c1O", "note": "[VLX-1005]", "values": [{"measurement": "PD-L1", "setting": "NOD.hALOX12 mice [1]; sheet SFig 2A", "result": "2.371 and 2.045 and 2.4831 and 1.059 and 0.2909 and 1.897 and 1.722 and 1.56 and 0.2193 and 1.6509"}, {"measurement": "Ki67", "setting": "NOD.hALOX12 mice [1]; sheet SFig 2B", "result": "1.4 and 1.3004"}, {"measurement": "Random-fed blood glucose (Fig 1E)", "setting": "C57BL/6J mice; C57BL/6J, day 0, individual mice", "result": "180 and 167 and 192 and 187"}, {"measurement": "Random-fed blood glucose (Fig 1E)", "setting": "C57BL/6J mice; C57BL/6J, day 5, individual mice", "result": "172 and 214 and 232 and 221"}, {"measurement": "Random-fed blood glucose (Fig 1E)", "setting": "C57BL/6J mice; C57BL/6J, day 10, individual mice", "result": "253 and 280 and 275 and 278"}, {"measurement": "Random-fed blood glucose (Fig 1E)", "setting": "C57BL/6J mice; C57BL/6J, day 15, individual mice", "result": "347 and 298 and 284 and 335"}, {"measurement": "Random-fed blood glucose (Fig 1E)", "setting": "C57BL/6J mice; C57BL/6J, day 22, individual mice", "result": "347 and 428 and 437 and 367"}, {"measurement": "Random-fed blood glucose (Fig 1E)", "setting": "C57BL/6J mice; C57BL/6J, day 27, individual mice", "result": "487 and 478 and 512 and 486"}, {"measurement": "Random-fed blood glucose (Fig 1E)", "setting": "C57BL/6J mice; C57BL/6J, day -5, individual mice", "result": "190 and 213 and 199 and 201"}, {"measurement": "GTT AUC (Fig 1G)", "setting": "C57BL/6J mice; C57BL/6J, 30 mg/kg i.p., day 4 after STZ, individual mice", "result": "44930 and 36610 and 49530 and 43880"}, {"measurement": "GTT blood glucose (Fig 1F)", "setting": "C57BL/6J mice; 30 mg/kg i.p., day 4 after STZ, 0 min after glucose, individual mice", "result": "164 and 184 and 175 and 154"}, {"measurement": "GTT blood glucose (Fig 1F)", "setting": "C57BL/6J mice; 30 mg/kg i.p., day 4 after STZ, 10 min after glucose, individual mice", "result": "268 and 395 and 398 and 425"}, {"measurement": "GTT blood glucose (Fig 1F)", "setting": "C57BL/6J mice; 30 mg/kg i.p., day 4 after STZ, 20 min after glucose, individual mice", "result": "532 and 602 (2×) and 658"}, {"measurement": "GTT blood glucose (Fig 1F)", "setting": "C57BL/6J mice; 30 mg/kg i.p., day 4 after STZ, 30 min after glucose, individual mice", "result": "682 and 563 and 602 and 586"}, {"measurement": "GTT blood glucose (Fig 1F)", "setting": "C57BL/6J mice; 30 mg/kg i.p., day 4 after STZ, 60 min after glucose, individual mice", "result": "547 and 425 and 594 and 493"}, {"measurement": "GTT blood glucose (Fig 1F)", "setting": "C57BL/6J mice; 30 mg/kg i.p., day 4 after STZ, 90 min after glucose, individual mice", "result": "459 and 369 and 530 and 452"}, {"measurement": "GTT blood glucose (Fig 1F)", "setting": "C57BL/6J mice; 30 mg/kg i.p., day 4 after STZ, 120 min after glucose, individual mice", "result": "366 and 256 and 369 and 398"}, {"measurement": "Glycemic outcome after STZ", "setting": "C57BL/6J mice; male WT C57BL/6J mice, 30 mg/kg i.p. daily peri-STZ", "result": "became overtly hyperglycemic"}, {"measurement": "4-HNE immunostaining (oxidative stress marker) vs placebo", "setting": "NOD.hALOX12 mice [2]; [7]", "result": "reduced immunostaining"}, {"measurement": "GPx1 levels in β cells", "setting": "NOD.hALOX12 mice [2]; [7]", "result": "increase"}, {"measurement": "4-hne", "setting": "NOD.hALOX12 mice [2]; [8]", "result": "300.045 and 304.934 and 308.173 and 287.237 and 299.135"}, {"measurement": "GPx1", "setting": "NOD.hALOX12 mice [2]; [8]", "result": "416.4 and 443.77 and 439.26 and 458.35"}, {"measurement": "Mice protected from diabetes development at 25 weeks of age", "setting": "NOD.hALOX12 mice [3]; female NOD.hALOX12 mice", "result": 60, "unit": "%"}, {"measurement": "Mice protected from diabetes development at 25 weeks of age", "setting": "NOD.hALOX12 mice [3]; male NOD.hALOX12 mice", "result": 75, "unit": "%"}, {"measurement": "Blood glucose levels vs vehicle in established diabetes", "setting": "NOD.hALOX12 mice [4]", "result": "relative reductions in blood glucose levels"}, {"measurement": "Reversal of established diabetes", "setting": "NOD.hALOX12 mice [4]", "result": "did not observe a reversal in diabetes"}, {"measurement": "T and B cell infiltration (pancreas pathology)", "setting": "NOD.hALOX12 mice [5]; [9]", "result": "reduced T and B cell infiltration"}, {"measurement": "T cells (CD3+), macrophages (F4/80+), activated macrophages (Mac2+) by immunohistochemistry", "setting": "NOD.hALOX12 mice [5]; [9]", "result": "reductions"}, {"measurement": "Extent of insulitis (insulitis scoring) vs vehicle", "setting": "NOD.hALOX12 mice [5]; female NOD.hALOX12 mice, 30 mg/kg p.o., 4 weeks (6–10 weeks of age)", "result": "significantly reduced"}, {"measurement": "Insulitis score (Fig 2E)", "setting": "NOD.hALOX12 mice [5]; individual animals, listed as VLX", "result": "1.633 and 1.787 and 1.784 and 1.529 and 1.472"}, {"measurement": "CD3", "setting": "NOD.hALOX12 mice [5]; [10]", "result": "1.368e-5 and 2.024e-5 and 0.0002739 and 0 and 2.686e-5"}, {"measurement": "F4/80", "setting": "NOD.hALOX12 mice [5]; [10]", "result": "0.00043 and 0.0003528 and 0.0003661 and 0.0004659 and 0.0002593"}, {"measurement": "F4/80 (second Veh/VLX pair)", "setting": "NOD.hALOX12 mice [5]; [10]", "result": "0.000451 and 0.000344 and 0.000488 and 0.0002845"}, {"measurement": "CD19", "setting": "NOD.hALOX12 mice [6]", "result": "0.1873 and -0.4029 and 0.4865 and 2.831 and -0.3159 and 0.2718 and 0.8536 and 0.6292 and 1.249 and 2.864"}]}
